Some test systems named below: A549 NSCLC; CAKI-1 renal; COLO 205 colon; DMS 273 small cell lung; EKVX NSCLC; HCT-116 colon; HOP-62 NSCLC; HOP-92 NSCLC; KM12 colon; MOLT-4 leukemia; NCI-H23 lung; RPMI-8226 leukemia; RXF 393 renal; SK-MEL-5 melanoma; SK-OV-3 ovarian; UACC-257 melanoma; MALME-3M melanoma; BT-549 breast; MDA-MB-231 breast; MDA-N.
What all share (experiment): NCI anticancer screen, dose series, 48 h

TGI data for 8 compounds are collected here from PubChem BioAssay (NCI).

Each structure is given as a SMILES string.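 Interpolation was linear, between the two tested concentrations surrounding the appropriate level; five concentrations were tested over 48 hours in 96-well plates. TGI is the concentration that stops growth completely.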 Bounds are passed on as bounds.

Turning to `CN1CCC(CN2c3ccccc3Sc3ccccc32)CC1`, the TGI with A549 NSCLC is 28.4 µM; in the assay on CAKI-1 renal it was 18 µM; in the assay with COLO 205 colon, 27.1 µM; in the assay on DMS 273 small cell lung it was 26.2 µM; in the assay with EKVX NSCLC, 27.5 µM; in the assay on HCT-116 colon it was 25.2 µM. Besides, the TGI worked out at 32.2 µM in the assay on HOP-62 NSCLC; 17.6 µM with HOP-92 NSCLC; 29.6 µM in the assay on KM12 colon; 32.9 µM with MOLT-4 leukemia; 30 µM with NCI-H23 lung; 30.7 µM in the assay with RPMI-8226 leukemia. The TGI in the assay with RXF 393 renal was found to be 15.1 µM; with SK-MEL-5 melanoma, 18.5 µM; in the assay with SK-OV-3 ovarian, 30.2 µM; with UACC-257 melanoma, 27.8 µM.

Turning to `C=C(Br)N(CC)CC`, the TGI in the assay on A549 NSCLC, in the assay with CAKI-1 renal, in the assay with COLO 205 colon, in the assay with DMS 273 small cell lung, in the assay on EKVX NSCLC and with HCT-116 colon was over 100 µM each time. Moreover, the TGI in the assay on HOP-62 NSCLC, in the assay with HOP-92 NSCLC, with KM12 colon, with MALME-3M melanoma, with MOLT-4 leukemia and in the assay on NCI-H23 lung was over 100 µM throughout. The TGI in the assay on RPMI-8226 leukemia, with RXF 393 renal, in the assay with SK-MEL-5 melanoma, with SK-OV-3 ovarian and with UACC-257 melanoma was over 100 µM in each case.

As for `COc1ccc(/C=c2\sc3n(c2=O)C(N)=C(C#N)C(c2ccc(OC)cc2)C=3c2nc3ccccc3[nH]2)cc1` (centres undefined), the TGI in the assay with A549 NSCLC was over 100 µM; with CAKI-1 renal, 42.9 µM; with COLO 205 colon it was over 100 µM; in the assay on DMS 273 small cell lung, over 100 µM; in the assay with EKVX NSCLC, 56.2 µM; in the assay on HCT-116 colon it was 64.1 µM. For the same compound, the TGI is over 100 µM in the assay on HOP-62 NSCLC; 70 µM in the assay on HOP-92 NSCLC; 31 µM in the assay on KM12 colon; 42.2 µM with MALME-3M melanoma; over 100 µM in the assay with MOLT-4 leukemia; 20.2 µM in the assay with NCI-H23 lung. Besides, the TGI was over 100 µM with RPMI-8226 leukemia, 36.8 µM in the assay on SK-MEL-5 melanoma and 78.8 µM in the assay with UACC-257 melanoma.

`CCC1CN2CCc3c([nH]c4ccccc34)C2C[C@@H]1CC(=O)N(C)C` (some centres undefined): the TGI in the assay with A549 NSCLC, with COLO 205 colon, in the assay with DMS 273 small cell lung, with EKVX NSCLC, in the assay on HCT-116 colon and in the assay with HOP-62 NSCLC was over 100 µM throughout. Also, the TGI in the assay on HOP-92 NSCLC, in the assay with KM12 colon, with MALME-3M melanoma, in the assay with MOLT-4 leukemia, in the assay on NCI-H23 lung and in the assay on RXF 393 renal was over 100 µM each time. Also, the TGI in the assay with SK-MEL-5 melanoma, in the assay with SK-OV-3 ovarian and in the assay with UACC-257 melanoma was over 100 µM throughout.

With `Cc1cc(C)nc(SC(C)C(=O)N/N=C/c2ccc(OCc3ccccc3)cc2)n1` (centres undefined), the TGI in the assay on A549 NSCLC was over 100 µM; in the assay on BT-549 breast it was over 100 µM; with CAKI-1 renal, over 100 µM; in the assay on COLO 205 colon, 91.6 µM; with EKVX NSCLC, over 100 µM; with HCT-116 colon, over 100 µM. In addition, the TGI in the assay on HOP-62 NSCLC is over 100 µM; in the assay on HOP-92 NSCLC, over 100 µM; in the assay on KM12 colon it was over 100 µM; in the assay on MALME-3M melanoma, over 100 µM; in the assay on MDA-MB-231 breast it was 65 µM; with MDA-N, over 100 µM. The TGI with MOLT-4 leukemia was 86.1 µM; in the assay on NCI-H23 lung it was over 100 µM; in the assay on RPMI-8226 leukemia, 41.9 µM; with RXF 393 renal, 66.6 µM; in the assay with SK-MEL-5 melanoma it was 20.5 µM; with SK-OV-3 ovarian, over 100 µM. In addition, the TGI in the assay with UACC-257 melanoma worked out at 37.9 µM.

`NCCCNC1(c2cc3ccccc3s2)CCCCC1`: the TGI with A549 NSCLC was determined as 21.5 µM; in the assay on BT-549 breast it was 27.8 µM; in the assay on CAKI-1 renal, 23 µM; in the assay on COLO 205 colon it was 3.45 µM; in the assay with EKVX NSCLC, 22.5 µM; in the assay on HCT-116 colon, 4.91 µM. Moreover, the TGI with HOP-62 NSCLC amounted to 27.8 µM; with HOP-92 NSCLC it was 25.5 µM; in the assay with KM12 colon, 14.7 µM; with MALME-3M melanoma, 3.65 µM; with MDA-MB-231 breast, 14.2 µM; in the assay with MDA-N, 3.56 µM. The TGI with MOLT-4 leukemia stood at 15.7 µM; in the assay with NCI-H23 lung it was 31.3 µM; with RPMI-8226 leukemia it was 5.88 µM; with RXF 393 renal, 17.3 µM; with SK-MEL-5 melanoma it was 3.31 µM; with SK-OV-3 ovarian, 28.6 µM. Also, in the assay with UACC-257 melanoma, the TGI is 3.23 µM.

`C#CC1(O)C(COP(=O)(O)OCC2OC(n3ccc(NCCCCCCCCCCCCCCCCCC)nc3=O)C(O)C2O)OC(n2ccc(N)nc2=O)C1O` (centres undefined): the TGI with A549 NSCLC was over 55.9 µM; in the assay on BT-549 breast, 29.8 µM; in the assay with CAKI-1 renal it was 6.77 µM; with COLO 205 colon, over 32.9 µM; with EKVX NSCLC it was 54.1 µM; in the assay on HCT-116 colon, over 36 µM. The TGI in the assay with HOP-62 NSCLC turned out to be 46.7 µM; in the assay with HOP-92 NSCLC it was 59.8 µM; in the assay with KM12 colon it was 26.6 µM; in the assay with MALME-3M melanoma, 11 µM; in the assay on MDA-MB-231 breast it was 34.4 µM; in the assay on MDA-N, 70.6 µM. Also, the TGI was 40 µM in the assay on MOLT-4 leukemia; 55.8 µM with NCI-H23 lung; over 73.8 µM with RPMI-8226 leukemia; 61.9 µM in the assay on RXF 393 renal; 26 µM in the assay on SK-MEL-5 melanoma; over 59.4 µM with SK-OV-3 ovarian. Also, the TGI in the assay on UACC-257 melanoma came to 60.2 µM.

On to `Cc1ccc(S(=O)(=O)OCC23CCC(CC2)C2CC23)cc1` (centres undefined), for which the TGI in the assay with A549 NSCLC, in the assay with CAKI-1 renal, with COLO 205 colon, with DMS 273 small cell lung, in the assay on HCT-116 colon and in the assay with HOP-62 NSCLC was over 100 µM throughout. The TGI in the assay on HOP-92 NSCLC is 87.5 µM; with MALME-3M melanoma, over 100 µM; in the assay with MOLT-4 leukemia, over 100 µM; in the assay with NCI-H23 lung it was over 100 µM; in the assay on RPMI-8226 leukemia, 87.8 µM; in the assay on SK-MEL-5 melanoma, 75.4 µM. Also, the TGI in the assay with SK-OV-3 ovarian and in the assay on UACC-257 melanoma was over 100 µM in each case.
